Here are results for 23 molecules from patent US6949536B2, “Sulfonylbenzene compounds as anti-inflammatory/analgesic agents” (Pfizer, Inc., priority 1998, dated 2005).

Structures are written as SMILES. Structures can show the parent of a compound that is named as a salt.

One may read the melting point as the temperature of the solid-liquid transition. For `Cc1cc(-c2noc(C)c2-c2ccc(S(C)(=O)=O)c(F)c2)ccc1-c1cscn1` [Example 170, 4-[3-Fluoro-4-(methylsulfonyl)phenyl]-5-methyl-3-[3-methyl-4-(1,3-thiazol-4-yl)phenyl]isoxazole], the melting point was 99.5 °C.
With `CCOC(=O)c1cc(-c2ccc(-c3ccco3)cc2)n(-c2ccc(S(C)(=O)=O)c(F)c2)n1` [Example 126, Ethyl 1-[3-Fluoro-4-(methylsulfonyl)phenyl]-5-[4-(2-furyl)phenyl]-1H-pyrazole-3-carboxylate] the figure was 172 °C.
`COc1cc(-n2nc(C(F)(F)F)cc2-c2ccc(-c3ccco3)cc2)ccc1S(N)(=O)=O` (as salt: hydrochloride) [Example 148, 4-[5-[4-(2-Furyl)phenyl]-3-(trifluoromethyl)-1H-pyrazol-1-yl]-2-methoxybenzenesulfonamide] registered a melting point of 206.7 °C.
Consider `CS(=O)(=O)c1ccc(-n2nc(C(F)(F)F)cc2-c2ccc(-c3cncs3)cc2)cc1` [Example 24, 1-[4-(Methylsulfonyl)phenyl]-5-[4-(5-thiazolyl)phenyl]-3-trifluoromethyl-1H-pyrazole], for which the melting point is 169 to 170 °C.
With `Cc1cn(-c2ccc(S(N)(=O)=O)c(F)c2)c(-c2ccc(-c3cscn3)cc2)n1` [Example 179, 2-Fluoro-4-[4-methyl-2-[4-(4-thiazolyl)phenyl]-1H-imidazol-1-yl]benzenesulfonamide], the melting point lay in the range of 145 to 147 °C.
For `Cc1cc(-c2noc(C)c2-c2ccc(S(N)(=O)=O)c(F)c2)ccc1-c1cscn1` [Example 188, 2-Fluoro-4-[5-methyl-3-[3-methyl-4-(1,3-thiazol-4-yl)phenyl]-4-isoxazolyl]benzenesulfonamide] the value was 114 to 116 °C; for `CS(=O)(=O)c1ccc(-n2nc(C(F)(F)F)cc2-c2ccc(-c3cnco3)cc2)cc1` (as salt: hydrochloride) [Example 76, 1-[4-(Methylsulfonyl)phenyl]-5-[4-(5-oxazolyl)phenyl]-3-(trifluoromethyl)-1H-pyrazole], 178 to 180 °C.
With `Cc1cc(-c2cc(C(F)(F)F)nn2-c2ccc(S(C)(=O)=O)cc2)ccc1-c1cscn1` (as salt: hydrochloride) [Example 125, 4-{2-Methyl-4-[1-[4-(methylsulfonyl)phenyl]-3-(trifluoromethyl)-1H-pyrazol-5-yl]phenyl}-1,3-thiazole] the figure was 140 to 142 °C; with `COc1cc(-c2cc(C(F)(F)F)nn2-c2ccc(S(N)(=O)=O)c(F)c2)ccc1-c1cscn1` (as salt: hydrochloride) [Example 175, 2-Fluoro-4-[5-[3-methoxy-4-(1,3-thiazol-4-yl)phenyl]-3-(trifluoromethyl)-1H-pyrazol-1-yl]benzenesulfonamide], 97 to 99 °C.
For `CS(=O)(=O)c1ccc(-n2ncc(C#N)c2-c2ccc(-c3ccco3)cc2)cc1F` [Example 163, 4-Cyano-1-[3-fluoro-4-(methylsulfonyl)phenyl]-5-[4-(2-furyl)phenyl]-1H-pyrazole], the melting point lay within 153 to 157 °C.
Molecule `CS(=O)(=O)c1ccc(C2=C(c3ccc(-c4ccoc4)cc3)C(=O)OC2)cc1` [Example 34, 3-[4-(3-Furyl)phenyl]-4-[4-(methylsulfonyl)phenyl]-2-(5H)-furanone] showed a melting point of 188 to 190 °C.
With `CS(=O)(=O)c1ccc(-n2cc(C(F)(F)F)nc2-c2ccc(-c3cscn3)cc2)cc1F` [Example 153, 1-[3-Fluoro-4-(methylsulfonyl)phenyl]-2-[4-(4-thiazolyl)phenyl]-4-trifluoromethyl-1H-imidazole], the melting point was in the range of 112.5 to 115 °C.
Turning to `CN(C)C(=O)c1cc(-c2ccc(-c3ccco3)cc2)n(-c2ccc(S(C)(=O)=O)c(F)c2)n1` (as salt: hydrochloride) [Example 133, N,N-Dimethyl-1-[3-fluoro-4-(methylsulfonyl)phenyl]-5-[4-(2-furyl)phenyl]-1H-pyrazole-3-carboxamide], the melting point lay in the range of 167 to 168 °C.
On to `Cc1nc(-c2ccc(-c3cscn3)c(C)c2)c(-c2ccc(S(C)(=O)=O)c(F)c2)o1` [Example 173, 5-[3-Fluoro-4-(methylsulfonyl)phenyl]-2-methyl-4-[3-methyl-4-(1,3-thiazol-4-yl)phenyl]-1,3-oxazole], for which the melting point fell in the range of 177 to 178 °C.
With `Cc1scnc1-c1ccc(-c2cc(C(F)(F)F)nn2-c2ccc(S(C)(=O)=O)c(F)c2)cc1` [Example 104, 4-{4-[1-[3-Fluoro-4-(methylsulfonyl)phenyl]-3-(trifluoromethyl)-1H-pyrazol-5-yl]phenyl}-5-methyl-1,3-thiazole], the melting point is 170 to 172 °C.
With `NS(=O)(=O)c1ccc(-n2nc(C(F)(F)F)cc2-c2ccc(-c3cocn3)cc2)cc1` (as salt: hydrochloride) [Example 118, 4-[5-[4-(1,3-Oxazol-4-yl)phenyl]-3-(trifluoromethyl)-1H-pyrazol-1-yl]benzenesulfonamide] the figure was 170 to 172 °C; with `CS(=O)(=O)c1ccc(-n2nc(C(F)(F)F)cc2-c2ccc(-c3cscn3)c(Cl)c2)cc1` (as salt: hydrochloride) [Example 119, 4-{2-Chloro-4-[1-[4-(methylsulfonyl)phenyl]-3-(trifluoromethyl)-1H-pyrazol-5-yl]phenyl}-1,3-thiazole], 128 to 130 °C; with `Cc1cc(-c2cc(C(F)(F)F)nn2-c2ccc(S(C)(=O)=O)cc2)ccc1-c1ccco1` (as salt: hydrochloride) [Example 31, 1-[4-(Methylsulfonyl)phenyl]-5-[4-(2-furyl)-3-methylphenyl]-3-(trifluoromethyl)-1H-pyrazole], 174 to 176 °C.
As for `Cc1cc(-c2cscn2)ccc1-c1cc(C(F)(F)F)nn1-c1ccc(S(C)(=O)=O)c(F)c1` (as salt: methanesulfonate) [Example 187, 1-[3-Fluoro4-(methylsulfonyl)phenyl]-5-[2-methyl-4-(4-thiazolyl)phenyl]-3-trifluoromethyl-1H-pyrazole], the melting point worked out at 131.9 °C.
Molecule `Cc1ccc(-c2ccc(S(C)(=O)=O)cc2)n1-c1ccc(-c2ccco2)c(Cl)c1` [Example 42, 1-[3-Chloro-4-(2-furyl)phenyl]-2-methyl-5-[4-(methylsulfonyl)phenyl]-1H-pyrrole] gave a melting point of 127 to 131 °C.
`NS(=O)(=O)c1ccc(-n2nc(C(F)(F)F)cc2-c2ccc(-c3ccco3)cc2)c(F)c1` (as salt: hydrochloride) [Example 141, 3-Fluoro-4-[5-[4-(2-furyl)phenyl]-3-(trifluoromethyl)-1H-pyrazol-1-yl]benzenesulfonamide]: the melting point is 174.4 °C.
With `Cc1cc(C2=C(c3ccc(S(C)(=O)=O)cc3)C(C)(C)OC2=O)ccc1-c1cscn1` [Example 184, 5,5-Dimethyl-3-[3-methyl-4-(1,3-thiazol-4-yl)phenyl]-4-[4-(methylsulfonyl)phenyl]-2(5H)-furanone] the figure was 180.3 °C; with `CS(=O)(=O)c1ccc(-n2nc(C(=O)O)cc2-c2ccc(-c3ccco3)cc2)cc1F` [Example 128, 1-[3-Fluoro-4-(methylsulfonyl)phenyl]-5-[4-(2-furyl)phenyl]-1H-pyrazole-3-carboxylic Acid], 171.5 to 173 °C.
